Laboratory results as given in the NIST ThermoML archive (doi:10.1016/j.fluid.2005.07.017).

Conditions: Liquid, Vibrating tube method

c1ccsc1 [thiophene]
Conditions | mass density [kg/m3]
293.15 K, 101 kPa | 1063.59
303.15 K, 101 kPa | 1051.55
313.09 K, 1029 kPa | 1040.96
313.09 K, 1969 kPa | 1041.84
313.09 K, 2970 kPa | 1042.78
313.09 K, 3987 kPa | 1043.71
313.09 K, 5055 kPa | 1044.72
313.09 K, 5952 kPa | 1045.51
313.09 K, 6937 kPa | 1046.43
313.09 K, 8032 kPa | 1047.39
313.09 K, 9218 kPa | 1048.44
313.09 K, 10045 kPa | 1049.18
313.09 K, 11012 kPa | 1050.03
313.09 K, 12014 kPa | 1050.9
313.09 K, 12995 kPa | 1051.74
313.09 K, 13961 kPa | 1052.59
313.09 K, 14970 kPa | 1053.43
313.09 K, 15953 kPa | 1054.26
313.09 K, 17004 kPa | 1055.16
313.09 K, 18003 kPa | 1055.95
313.09 K, 18904 kPa | 1056.76
313.15 K, 101 kPa | 1039.32
323.01 K, 1047 kPa | 1028.97
323.01 K, 2059 kPa | 1029.98
323.01 K, 3070 kPa | 1031.02
323.01 K, 4047 kPa | 1031.99
323.01 K, 5002 kPa | 1032.9
323.01 K, 6005 kPa | 1033.9
323.01 K, 7068 kPa | 1034.92
323.01 K, 8021 kPa | 1035.81
323.01 K, 9013 kPa | 1036.76
323.01 K, 10005 kPa | 1037.67
323.01 K, 10991 kPa | 1038.62
323.01 K, 12034 kPa | 1039.58
323.01 K, 12977 kPa | 1040.44
323.01 K, 13999 kPa | 1041.38
323.01 K, 14991 kPa | 1042.26
323.01 K, 15995 kPa | 1043.17
323.01 K, 16998 kPa | 1044.03
323.01 K, 17983 kPa | 1044.93
323.01 K, 18951 kPa | 1045.78
323.15 K, 101 kPa | 1026.98
332.85 K, 1015 kPa | 1016.93
332.85 K, 2035 kPa | 1018
332.85 K, 3004 kPa | 1019.06
332.85 K, 3964 kPa | 1020.05
332.85 K, 4991 kPa | 1021.14
332.85 K, 6001 kPa | 1022.17
332.85 K, 7014 kPa | 1023.21
332.85 K, 7998 kPa | 1024.2
332.85 K, 9009 kPa | 1025.23
332.85 K, 9995 kPa | 1026.19
332.85 K, 10989 kPa | 1027.18
332.85 K, 12006 kPa | 1028.17
332.85 K, 13009 kPa | 1029.18
332.85 K, 13971 kPa | 1030.09
332.85 K, 15006 kPa | 1031.04
332.85 K, 15990 kPa | 1032.01
332.85 K, 17050 kPa | 1033.03
332.85 K, 17976 kPa | 1033.88
332.85 K, 19018 kPa | 1034.92
333.15 K, 101 kPa | 1014.58
342.77 K, 1039 kPa | 1004.75
342.77 K, 2072 kPa | 1005.93
342.77 K, 3033 kPa | 1007.02
342.77 K, 4023 kPa | 1008.17
342.77 K, 5027 kPa | 1009.26
342.77 K, 6033 kPa | 1010.36
342.77 K, 7008 kPa | 1011.44
342.77 K, 7998 kPa | 1012.5
342.77 K, 9005 kPa | 1013.59
342.77 K, 10000 kPa | 1014.65
342.77 K, 10963 kPa | 1015.65
342.77 K, 12009 kPa | 1016.72
342.77 K, 13023 kPa | 1017.82
342.77 K, 13928 kPa | 1018.74
342.77 K, 15009 kPa | 1019.83
342.77 K, 15998 kPa | 1020.79
342.77 K, 17025 kPa | 1021.8
342.77 K, 17995 kPa | 1022.8
342.77 K, 19013 kPa | 1023.79
342.77 K, 20001 kPa | 1024.73
343.15 K, 101 kPa | 1002.15
352.67 K, 1064 kPa | 992.39
352.67 K, 2003 kPa | 993.54
352.67 K, 3024 kPa | 994.79
352.67 K, 4003 kPa | 995.98
352.67 K, 5048 kPa | 997.22
352.67 K, 6013 kPa | 998.36
352.67 K, 7013 kPa | 999.51
352.67 K, 8050 kPa | 1000.73
352.67 K, 9018 kPa | 1001.82
352.67 K, 10003 kPa | 1002.93
352.67 K, 11003 kPa | 1004.07
352.67 K, 12004 kPa | 1005.16
352.67 K, 12998 kPa | 1006.25
352.67 K, 14005 kPa | 1007.34
352.67 K, 15038 kPa | 1008.46
352.67 K, 16006 kPa | 1009.49
352.67 K, 17027 kPa | 1010.58
352.67 K, 18001 kPa | 1011.6
352.67 K, 19031 kPa | 1012.65
352.67 K, 20017 kPa | 1013.74
353.15 K, 101 kPa | 989.76
362.51 K, 1007 kPa | 979.8
362.51 K, 2022 kPa | 981.13
362.51 K, 3029 kPa | 982.49
362.51 K, 4004 kPa | 983.74
362.51 K, 5006 kPa | 985.01
362.51 K, 6003 kPa | 986.27
362.51 K, 6999 kPa | 987.5
362.51 K, 7993 kPa | 988.73
362.51 K, 9007 kPa | 989.99
362.51 K, 9993 kPa | 991.16
362.51 K, 10997 kPa | 992.36
362.51 K, 11993 kPa | 993.56
362.51 K, 12838 kPa | 994.53
362.51 K, 14038 kPa | 995.94
362.51 K, 15044 kPa | 997.1
362.51 K, 16029 kPa | 998.18
362.51 K, 17006 kPa | 999.27
362.51 K, 18016 kPa | 1000.4
362.51 K, 18987 kPa | 1001.47
